Test results reported in US20220040349A1, “ANTIVIRAL METHODS AND COMPOSITIONS” (priority 2020, published 2022).
Entries after “also recorded” stand apart in the source; their conditions may differ.

What was measured:
[1] = tested on: E. coli; experiment: Killing of E. coli suspended in solution under irradiation or dark incubation (Part IV); format: cell-based; details: for killing of E. coli / killing of E. coli at longer times: 1-10 μg/mL; for killing of E. coli: five minutes of irradiation; for killing of E. coli at longer times: longer than five minutes; for activity against E. coli in suspension in the dark: dark incubation
Description: (§1) In the current study we have observed Compound E, Compound D, and Formula X in aqueous media with suspensions of E. coli and SARS-CoV-2 for Compound E and with suspensions of E. coli for Compound D and Formula X. We have also studied these oligomers as supported coatings on various supporting materials including wipe scaffolds, commercial Kimwipes, and proprietary materials from Diamond Wipes and HYDAC.

[2] = tested on: E coli; experiment: Light-activated killing of bacteria (Example III-1); format: cell-based
Description: No killing of bacteria in the dark has yet been observed.

[3] = tested on: SARS-CoV-2; format: cell-based; details: cool white; 30 minutes irradiation (earliest point)
[4] = tested on: bacteria; experiment: Antibacterial activity of oligomer IX under visible light and in the dark; format: cell-based
[5] = tested on: mammal models; details: in vivo
[6] = tested on: SARS-CoV-2; experiment: Compound E in solution: inactivation of SARS-CoV-2 under cool white light, plaque assay on Vero E6 cells; format: cell-based
[7] = tested on: SARS-CoV-2; experiment: Compound E-coated glass fiber filter: inactivation of SARS-CoV-2 under cool white light, plaque assay on Vero E6 cells; format: cell-based; details: for inactivation of the virus: coated on glass fiber, cool white
[8] = tested on: E. coli; experiment: Killing of E. coli by compound coated on wet wipe surface or filter; format: cell-based
Description: Compound E was applied to a wet wipe surface and also to the surface of a filter for filtration of air or water.
as §1

Cn1cc[n+](CCCOc2ccc(C#Cc3ccc(C#Cc4ccc(OCCC[n+]5ccn(C)c5)cc4)cc3)cc2)c1 [Compound D] was tested, and the “killing of E. coli” value ([1]; near UV) was roughly 99%, the “killing of E. coli at longer times” value ([1]; near UV) was “complete killing” and the “activity against E. coli in suspension in the dark” value [1] was “neither compound showed any killing; also recorded: not under visible light or dark conditions”. For the same molecule, the “activity against E. coli in suspension under near-UV” value (from here on “activity … under near-UV”) [1] was “had activity”, the “activity against E. coli in suspension under visible light” value ([1]; visible light) was “not under visible light or dark conditions” and the relative reactivity [2] was “more reactive than Compound E”. For the same molecule, the “anti-bacterial activity using LuzChem cool white light” value [2] was “excellent anti-bacterial activity”, the “killing of bacteria in the dark” value [2] was “No killing” and the “light-activated killing of bacteria” value [2] was “excellent light-activated killing”.
In the case of C[N+](C)(C)CCCOc1ccc(C#Cc2ccc(C#Cc3ccc(OCCC[N+](C)(C)C)cc3)s2)cc1 [Formula X], the “activity against E. coli in suspension in the dark” value [1] is reported as “considerable dark reactivity; also recorded: had activity”, the “activity … under near-UV” value [1] is reported as “activity under visible light and near-UV; also recorded: had activity” and the “activity against E. coli in suspension under visible light” value ([1]; visible light) is reported as “activity under visible light and near-UV; also recorded: had activity”. The virus present [3] was “no virus present”.
C[N+](C)(C)CCCOc1ccc(C#Cc2ccc(C#Cc3ccc(OCCC[N+](C)(C)C)cc3)cc2)cc1 [Formula IX] was tested, and the “activity against bacteria in the dark” value ([4]; dark) was “active against bacteria in the dark” and the “activity under visible light irradiation” value ([4]; visible light) was “not active under visible light irradiation”.
In the case of Cn1cc[n+](CCCOc2ccc(C#Cc3ccc(C#Cc4ccc(OCCC[n+]5ccn(C)c5)cc4)s3)cc2)c1 [Compound E], the “toxicity against mammal models” value [5] is reported as “no toxicity”, the “killing of E. coli” value ([1]; visible light) is reported as roughly 99% and the “killing of E. coli at longer times” value ([1]; visible light) is reported as “complete killing”. The “activity against E. coli in suspension in the dark” value [1] was “neither compound showed any killing; also recorded: not in dark conditions”, the “activity … under near-UV” value [1] was “had activity” and the “activity against E. coli in suspension under visible light” value ([1]; visible light) was “had activity”. The “activity against SARS-Cov-2 in suspension in the dark” value ([6]; dark conditions) was “not in dark conditions”, the “inactivation of the virus” value ([6]; solution (10 μg/mL), cool white, 5 minutes of irradiation) was greater than 95% and the “inactivation at longer irradiation” value ([6]; solution, cool white, 10 minutes or longer) was “complete deactivation inactivation”. For the same molecule, the “activity against SARS-Cov-2 in suspension” value ([6]; visible light and near-UV) was “had activity”, the “inactivation of the virus” value ([7]; 10 minutes irradiation) was “about 90%” and the “inactivation of the virus” value ([7]; 30 minutes) was 3 log. The “activity against SARS-Cov-2 on a filter” value ([7]; visible light and near-UV) was “had activity”, the “light-activated killing of E. coli on coated surface” value ([8]; applied to wet wipe surface and filter surface) was “strong light-activated killing” and the “activity against E. coli on a filter in the dark” value ([8]; dark conditions) was “not in dark conditions”. The “activity when coated surface immersed in suspension of E. coli” value ([8]; surface immersed in E. coli suspension) was “activity was retained”, the “activity against E. coli on a filter” value ([8]; visible light and near-UV) was “had activity” and the “anti-bacterial activity using LuzChem cool white light” value [2] was “excellent anti-bacterial activity”. For the same molecule, the “killing of bacteria in the dark” value [2] was “No killing” and the “light-activated killing of bacteria” value [2] was “excellent light-activated killing”.
